Patent US20160222014A1, “COMPOUNDS FOR REGULATING FAK AND/OR SRC PATHWAYS” (ASANA BIOSCIENCES, LLC, priority 2013, published 2016)

How the values were obtained:
JAK2 = JAK2 (Homo sapiens, UniProt O60674); experiment: JAK2 biochemical potency; details: read-out: JAK2 HTRF IC50
AURKB (Aurora B) enzyme = biological target: T1, AURKB (Aurora B) enzyme (Homo sapiens, UniProt Q96GD4); experiment: Aurora B HTRF assay; type: biochemical; details: read-out: AuroraB IC50
T1 construct: purchased Invitrogen PVR 130
T1 sequence (Q96GD4 whole entry): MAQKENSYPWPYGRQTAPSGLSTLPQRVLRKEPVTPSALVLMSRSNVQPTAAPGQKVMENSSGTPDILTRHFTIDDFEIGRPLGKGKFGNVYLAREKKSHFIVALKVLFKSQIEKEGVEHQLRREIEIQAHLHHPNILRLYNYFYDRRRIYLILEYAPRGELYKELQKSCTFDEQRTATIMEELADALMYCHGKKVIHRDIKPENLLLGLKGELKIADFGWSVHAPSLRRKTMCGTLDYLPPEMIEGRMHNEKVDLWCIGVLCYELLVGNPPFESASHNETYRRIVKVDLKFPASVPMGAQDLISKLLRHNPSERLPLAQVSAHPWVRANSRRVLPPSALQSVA
How it was run: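 Enzyme (5 nM final) and ULight-labelled PLK Ser137 peptide (50 nM) reacted 1 h at room temperature; a 30 μM final component was also present. Detection used EDTA-containing buffer with europium anti-phospho-PLK(Ser137) antibody at 2 nM, 1 h, then time-resolved FRET readout.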

recombinant human FAK1 = biological target: T2, recombinant human FAK1 (Homo sapiens, UniProt Q05397); experiment: FAK1 HTRF assay; type: biochemical
T2 construct: fused on or other part: N-terminal 6xHis tag
T2 sequence (Q05397 422-680 limits assumed): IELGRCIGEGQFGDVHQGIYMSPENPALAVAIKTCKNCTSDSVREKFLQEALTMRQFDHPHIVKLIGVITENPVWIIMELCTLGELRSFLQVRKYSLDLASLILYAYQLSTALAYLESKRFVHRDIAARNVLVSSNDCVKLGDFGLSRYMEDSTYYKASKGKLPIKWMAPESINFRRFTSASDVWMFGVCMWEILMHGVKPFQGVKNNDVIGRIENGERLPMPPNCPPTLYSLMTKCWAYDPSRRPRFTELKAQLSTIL
How it was run: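 IC50 values derive from HTRF % inhibition (ratio 665/620 nm, Eu–anti-phosphotyrosine 0.1 nM, SA-APC 12 nM). The kinase step ran 45 min at room temperature, pairing 10 nM His-FAK1(692–end) from baculovirus with 0.5 μM gastrin Tyr87 biotin-peptide and a reagent at 10 μM final, pH 7.4. Compound dilutions began at 10 μM.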

[1] = biological target: T3, FAK phosphorylated at Y397 in HEK-FAK cell line overexpressing human FL FAK protein (Homo sapiens, UniProt Q05397); experiment: Cell based assay, Phospho-FAK ELISA; details: HEK stb; read-out: pFAK EC50 (μM) HEK stb
T3 construct: expressed in transfected cells
T3 sequence (Q05397 whole entry): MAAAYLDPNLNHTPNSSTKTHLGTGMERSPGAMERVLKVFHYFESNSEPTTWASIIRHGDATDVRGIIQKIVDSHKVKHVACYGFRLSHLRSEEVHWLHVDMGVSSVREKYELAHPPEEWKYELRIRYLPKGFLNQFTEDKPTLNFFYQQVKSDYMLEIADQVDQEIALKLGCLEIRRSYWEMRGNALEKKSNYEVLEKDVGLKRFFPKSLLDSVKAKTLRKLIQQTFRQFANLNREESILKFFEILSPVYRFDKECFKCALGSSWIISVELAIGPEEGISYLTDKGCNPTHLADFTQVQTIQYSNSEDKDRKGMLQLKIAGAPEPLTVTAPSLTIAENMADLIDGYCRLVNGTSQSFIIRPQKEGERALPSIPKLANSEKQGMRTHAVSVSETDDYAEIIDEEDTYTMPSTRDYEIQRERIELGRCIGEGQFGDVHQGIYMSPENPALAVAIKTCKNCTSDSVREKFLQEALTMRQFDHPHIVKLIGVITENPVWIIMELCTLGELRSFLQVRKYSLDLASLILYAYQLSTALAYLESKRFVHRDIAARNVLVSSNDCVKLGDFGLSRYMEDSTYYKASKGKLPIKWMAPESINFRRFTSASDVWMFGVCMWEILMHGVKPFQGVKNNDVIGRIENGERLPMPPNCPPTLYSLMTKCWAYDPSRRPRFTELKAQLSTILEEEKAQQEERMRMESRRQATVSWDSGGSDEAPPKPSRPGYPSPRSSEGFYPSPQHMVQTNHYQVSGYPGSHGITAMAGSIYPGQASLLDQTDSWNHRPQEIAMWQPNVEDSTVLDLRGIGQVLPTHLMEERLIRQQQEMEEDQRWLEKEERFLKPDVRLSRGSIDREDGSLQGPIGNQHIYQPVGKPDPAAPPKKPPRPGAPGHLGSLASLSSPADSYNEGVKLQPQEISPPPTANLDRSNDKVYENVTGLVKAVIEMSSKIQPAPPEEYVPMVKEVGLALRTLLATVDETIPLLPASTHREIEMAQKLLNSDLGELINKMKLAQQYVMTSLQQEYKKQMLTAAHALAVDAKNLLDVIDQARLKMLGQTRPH
Description: D. Cell Based Assay-Phospho-FAK ELISA
The DuoSet IC ELISA (R&D systems—Cat no. DYC4528-5) provided the basic components required for the development of sandwich ELISAs to measure Focal Adhesion Kinase 1 (FAK) phosphorylated at Y397 in cell lysates. An immobilized capture antibody specific for FAK, also known as PTK2, binds both phosphorylated and unphosphorylated protein. After washing away unbound material, a biotinylated detection antibody specific for FAK phosphorylated at Y397 was used to detect only phosphorylated protein, utilizing a standard Streptavidin-HRP format. The cell line used for the assay was a stable HEK-FAK cell line overexpressing human FL FAK protein, which was generated as follows.
HEK293 cells (ATCC® CRL-1573™, 10801 University Boulevard, Manassas, Va. 20110 USA) were seeded in four 100 mm petri dishes at a seeding density of 1.5×10^6 cells per plate and incubated overnight at 37° C. in a 5% CO2 incubator. The transfection mix was prepared as follows. (A) 10 μg DNA (pCDNA4 V5/HisA vector containing Zeocin as mammalian selection marker, procured from Invitrogen) with the full length human FAK gene represented by the nucleotide sequence provided in NCBI Reference Sequence: NM_153831.3, SEQ ID NO: 1:
was added to 1.5 mL Opti-MEM® (reduced serum media is a modification of Eagle's Minimum Essential Media, buffered with HEPES and sodium bicarbonate and supplemented with hypoxanthine, thymidine, sodium pyruvate, L-glutamine, trace elements and growth factors commercially available from Invitrogen) and incubated at room temperature for 5 minutes. (B) 30 μL Lipofectamine™ Transfection reagent (Life Technologies) was added to 1.5 mL Opti-MEM® and incubated at room temperature for 5 minutes. Following this, (a) and (b) were mixed and incubated at room temperature for 20 minutes. Media was removed from cells and washed with 1× phosphate buffered saline (PBS) and the transfection mix prepared above was mixed with 3 mL of Opti-MEM®, added to the cells and incubated at 37° C. Four hours later, 6 mL of 20% Dulbecco's Modified Eagle Medium (DMEM) was added to the plates and incubated at 37° C. in a 5% CO2 incubator. Approximately 72 hours after transfection, cells were subcultured at various dilutions with fresh medium containing 0.8 mg/mL Zeocin™ (Life Technologies). Cells were replenished with selective medium every 3-4 days until cell foci were identified in the FAK transfected cells and most of the cells died in the control plates. Cells from these foci were grown in the presence of selective media and the expression of FAK was confirmed by Western Blotting. Over expression of FAK in the stably-transfected cells was quantified in the cell-based ELISA assay described below by determining the signal window, with a signal window of 2 or above considered to be robust). The HEK-FAK stable cell line thus was maintained in 0.8 mg/mL Zeocin™ (Life Technologies) and used in cell-based ELISA to assess autophosphorylation of FAK.
(i) Materials • 1. Phospho-FAK (Y397)-Capture Antibody • 2. Phospho-FAK (Y397)-Detection Antibody • 3. Streptavidin-HRP • 4. Cells used for the assay-HEK over expressing human FL FAK protein
(ii) Solutions • PBS—137 mM NaCl, 2.7 mM KCl, 8.1 mM Na2HPO4, 1.5 mM KH2PO4, pH 7.2-7.4, 0.2 μm filtered. • Wash Buffer—0.05% Tween20™ in PBS, pH 7.2-7.4 • Block Buffer—1% BSA, 0.05% NaN3, in PBS, pH 7.2-7.4. • IC Diluent #1-1% BSA in PBS, pH 7.2-7.4, 0.2 μm filtered. • IC Diluent #8-1 mM EDTA, 0.5% Triton™ X-100, 5 mM NaF in PBS, pH 7.2-7.4. IC Diluent #8 was also the base buffer for IC Diluent #3, IC Diluent #7, and Lysis. • Buffer #6. […]

Recombinant Src enzyme = biological target: T4, Recombinant Src enzyme (Homo sapiens, UniProt P12931); experiment: Src HTRF assay; type: biochemical
T4 construct: purchased Millipore 14-326; host or cells: Sf21 insect cells
T4 sequence (P12931 whole entry): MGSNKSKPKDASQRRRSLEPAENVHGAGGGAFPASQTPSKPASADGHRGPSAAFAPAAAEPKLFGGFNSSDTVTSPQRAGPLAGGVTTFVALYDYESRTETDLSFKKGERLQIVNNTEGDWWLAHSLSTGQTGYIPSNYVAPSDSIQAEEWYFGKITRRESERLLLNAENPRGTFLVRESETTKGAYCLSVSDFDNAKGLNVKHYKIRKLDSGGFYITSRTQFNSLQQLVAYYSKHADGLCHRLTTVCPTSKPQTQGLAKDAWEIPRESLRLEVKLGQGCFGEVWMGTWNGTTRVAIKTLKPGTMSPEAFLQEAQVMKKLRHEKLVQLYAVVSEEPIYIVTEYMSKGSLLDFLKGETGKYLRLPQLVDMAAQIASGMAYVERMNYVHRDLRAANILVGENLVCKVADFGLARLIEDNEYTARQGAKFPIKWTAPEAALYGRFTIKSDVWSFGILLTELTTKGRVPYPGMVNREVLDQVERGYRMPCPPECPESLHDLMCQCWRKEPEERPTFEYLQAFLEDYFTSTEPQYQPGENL
How it was run: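 Run as for the FAK HTRF assay (same buffer, supplements, compound preparation and procedure), with dasatinib included. Reaction contained 0.5 μM biotin-tagged Tyk2 synthetic peptide, 5 nM Src made in Sf21 cells, and a pH7.4-buffer-prepared component at 10 μM final.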

Sequence of JAK2 (O60674 whole entry, species assumed): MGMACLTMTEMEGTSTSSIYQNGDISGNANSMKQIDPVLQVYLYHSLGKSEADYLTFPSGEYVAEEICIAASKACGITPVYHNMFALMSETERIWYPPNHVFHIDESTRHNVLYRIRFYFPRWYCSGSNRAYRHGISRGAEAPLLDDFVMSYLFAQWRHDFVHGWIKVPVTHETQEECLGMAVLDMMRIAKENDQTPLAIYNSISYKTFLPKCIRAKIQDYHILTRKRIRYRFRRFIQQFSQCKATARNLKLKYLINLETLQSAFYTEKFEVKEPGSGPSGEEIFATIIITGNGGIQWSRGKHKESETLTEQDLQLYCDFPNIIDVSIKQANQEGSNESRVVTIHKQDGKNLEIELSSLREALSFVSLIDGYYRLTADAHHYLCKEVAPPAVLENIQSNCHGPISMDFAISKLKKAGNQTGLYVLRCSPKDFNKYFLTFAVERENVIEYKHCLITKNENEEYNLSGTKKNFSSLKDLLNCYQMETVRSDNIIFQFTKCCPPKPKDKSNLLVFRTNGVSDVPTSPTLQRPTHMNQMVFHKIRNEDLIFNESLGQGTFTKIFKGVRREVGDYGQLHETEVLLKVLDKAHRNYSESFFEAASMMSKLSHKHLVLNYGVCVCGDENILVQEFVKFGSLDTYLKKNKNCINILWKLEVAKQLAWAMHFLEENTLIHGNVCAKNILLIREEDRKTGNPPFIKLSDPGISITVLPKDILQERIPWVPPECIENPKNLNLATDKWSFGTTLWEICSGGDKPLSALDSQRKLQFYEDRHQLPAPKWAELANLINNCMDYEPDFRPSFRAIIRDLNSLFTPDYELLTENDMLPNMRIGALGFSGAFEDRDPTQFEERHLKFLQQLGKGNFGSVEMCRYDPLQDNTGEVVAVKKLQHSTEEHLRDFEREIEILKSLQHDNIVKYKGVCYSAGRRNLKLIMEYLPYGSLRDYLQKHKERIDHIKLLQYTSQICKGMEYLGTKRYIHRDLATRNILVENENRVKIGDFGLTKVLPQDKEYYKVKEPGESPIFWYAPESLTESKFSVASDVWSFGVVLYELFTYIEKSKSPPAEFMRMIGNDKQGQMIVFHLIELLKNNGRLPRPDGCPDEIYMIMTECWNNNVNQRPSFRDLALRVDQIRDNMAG

IC50 (JAK2) [nM] | IC50 (AURKB (Aurora B) enzyme) [nM] | IC50 (recombinant human FAK1) [nM] | EC50 [1] [µM] | IC50 (Recombinant Src enzyme) [nM] | SMILES
< 20 | < 20 | < 20 |  |  | O=S(=O)(c1cccc2cccnc12)n1ccc2cnc(Nc3ccc(CN4CCNCC4)cc3)nc21 [Example 244]
< 20 | < 20 | < 20 |  |  | O=S(=O)(c1cccc2cccnc12)n1ccc2cnc(Nc3ccc(N4CC5CC4CN5)cc3)nc21 (stereo not drawn) [Example 246]
< 20 | < 20 | < 20 |  |  | O=S(=O)(c1cccc2cccnc12)n1ccc2cnc(Nc3ccc(CN4CCC(F)(F)CC4)cc3)nc21 [Example 248]
< 20 | < 20 | < 20 |  |  | CN(c1ncccc1Cn1ccc2cnc(Nc3ccc4c(c3)CC(=O)N4)nc21)S(C)(=O)=O [Example 304]
< 20 | < 20 | < 20 |  |  | N#Cc1ccccc1S(=O)(=O)n1ccc2cnc(Nc3ccc(N4CCNCC4)cc3)cc21 [Example 314]
< 20 | < 20 | < 20 |  |  | N#Cc1ccccc1S(=O)(=O)n1cc(F)c2cnc(Nc3ccc(N4CCNCC4)cc3)nc21 [Example 319]
> 1000 | < 20 | < 20 |  |  | COc1cc(Nc2cc3c(ccn3S(=O)(=O)c3cccc4cccnc34)cn2)ccc1N1CCNCC1 [Example 328]
< 20 | < 20 | < 20 |  |  | COc1ccccc1S(=O)(=O)n1ccc2cnc(Nc3ccc(N4CCNCC4)cc3)nc21 [Example 333]
< 20 | < 20 | < 20 |  |  | Cc1cc(S(=O)(=O)n2ccc3cnc(Nc4ccc(N5CCNCC5)cc4)nc32)c2ncccc2c1 [Example 357]
> 1000 | < 20 | < 20 |  |  | COc1cc(Nc2cc3c(ccn3S(=O)(=O)c3ccccc3C#N)cn2)ccc1N1CCNCC1 [Example 391]
 | < 20 |  | > 1 | > 1000 | Cc1ccnc2c(S(=O)(=O)n3ccc4cnc(Nc5ccc(N6CCNCC6)cc5)nc43)cccc12 [Example 398]
< 20 |  |  |  |  | C[C@H]1CN(c2ccc(Nc3ncc4ccn(Cc5cccnc5N(C)S(C)(=O)=O)c4n3)cc2)CCN1 [Example 471, N-Methyl-N-(3-{2-[4-((S)-3-methyl-piperazin-1-yl)-phenylamino]-pyrrolo[2,3-d]pyrimidin-7-ylmethyl}-pyridin-2-yl)-methanesulfonamide]
< 20 | < 20 |  |  |  | C[C@@H]1CN(c2ccc(Nc3ncc4ccn(Cc5cccnc5N(C)S(C)(=O)=O)c4n3)cc2)CCN1 [Example 475]
< 20 | < 20 |  |  |  | C[C@H]1CNCCN1c1ccc(Nc2ncc3ccn(Cc4ccccc4N(C)S(C)(=O)=O)c3n2)cc1 [Example 481]
> 1000 |  | < 20 |  |  | CN(C)C1CCN(c2ccc(Nc3ncc4c(n3)N(S(=O)(=O)c3cccc5cccnc35)CC4(C)C)cc2)CC1 [Example 500]
 | < 20 |  | > 1 | < 20 | C[C@@H]1CN(c2ccc(Nc3ncc4ccn(Cc5ccccc5NS(C)(=O)=O)c4n3)cc2)CCN1 [Example 547]
 | > 1000 |  | > 1 | > 1000 | CC1(C)CN(c2ccccn2)c2nc(Nc3ccc4c(c3)CC(=O)N4)ncc21 [Example 740]

More lines, now with the values behind:

SMILES | IC50 (JAK2) [nM] | IC50 (AURKB (Aurora B) enzyme) [nM] | IC50 (recombinant human FAK1) [nM] | EC50 [1] [µM] | IC50 (Recombinant Src enzyme) [nM]
CC(=O)Nc1ccc(Nc2ncc3ccn(Cc4cccnc4N(C)S(C)(=O)=O)c3n2)cc1 [Example 35] | < 20 | < 20 |  |  | 
CN(C)CCOc1cccc(Nc2ncc3ccn(Cc4cccnc4N(C)S(C)(=O)=O)c3n2)c1 [Example 91] | < 20 | < 20 |  |  | 
CC(=O)Nc1ccc(Nc2ncc3ccn(Cc4ccccc4OC(F)F)c3n2)cc1 [Example 95] | < 20 |  |  |  | 
CN(c1ncccc1Cn1ccc2cnc(Nc3cccc(N4CCOCC4)c3)nc21)S(C)(=O)=O [Example 99] | < 20 |  |  |  | 
CC(=O)Nc1cccc(Nc2ncc3ccn(Cc4ccccc4N(C)S(C)(=O)=O)c3n2)c1 [Example 100] | < 20 |  | < 20 |  | 
CN1CCN(c2ccc(Nc3ncc4ccn(Cc5cccnc5N(C)S(C)(=O)=O)c4n3)cc2)CC1 [Example 101] | < 20 |  |  |  | 
CN(c1ccccc1Cn1ccc2cnc(Nc3ccc4c(c3)CCC(=O)N4)nc21)S(C)(=O)=O [Example 103] | < 20 |  | < 20 |  | 
CN(C)c1ccc(Nc2ncc3ccn(Cc4cccnc4N(C)S(C)(=O)=O)c3n2)cc1 [Example 105] | < 20 | < 20 |  |  | 
COc1ccccc1S(=O)(=O)n1ccc2cnc(Nc3ccc4c(c3)CCC(=O)N4)nc21 [Example 106] | < 20 | < 20 | < 20 |  | 
CN(c1ncccc1Cn1ccc2cnc(Nc3ccc(N4CCNCC4)cc3)nc21)S(C)(=O)=O [Example 116] | < 20 | < 20 |  |  | 
CN(c1ncccc1Cn1ccc2cnc(Nc3ccc4ncsc4c3)nc21)S(C)(=O)=O [Example 123] | < 20 | < 20 |  |  | 
CN(c1ncccc1Cn1ccc2cnc(Nc3cccc(S(N)(=O)=O)c3)nc21)S(C)(=O)=O [Example 165] | < 20 | < 20 |  |  | 
O=c1[nH]c2ccc(Nc3ncc4ccn(S(=O)(=O)c5ccccc5OC(F)F)c4n3)cc2[nH]1 [Example 180] | < 20 | < 20 | < 20 |  | 
O=S(=O)(c1ccccc1OC(F)F)n1ccc2cnc(Nc3ccc(N4CCNCC4)cc3)nc21 [Example 184] | < 20 | < 20 | < 20 |  | 
O=S(=O)(c1cccc2cccnc12)n1ccc2cnc(Nc3ccc(N4CCNCC4)cc3)nc21 [Example 193] | < 20 | < 20 | < 20 |  | 
CN(C)Cc1ccc(Nc2ncc3ccn(S(=O)(=O)c4cccc5cccnc45)c3n2)cc1 [Example 205] | < 20 | < 20 | < 20 |  | 
O=S(=O)(c1cccc2cccnc12)n1ncc2cnc(Nc3ccc(N4CCNCC4)cc3)cc21 [Example 210] | > 1000 | < 20 |  |  | 
O=S(=O)(c1cccc2cnccc12)n1ccc2cnc(Nc3ccc(N4CCNCC4)cc3)nc21 [Example 235] | < 20 | < 20 |  |  | 
